Measured values reported in patent US11186564B2, “Dual NAV1.2/5HT2a inhibitors for treating CNS disorders” (Sunovion Pharmaceuticals Inc., priority 2016, dated 2021).
Counter-ions that a name gives are not always drawn. Like-named read-outs stand apart in the source and are kept apart here.

Legend:
[1] = molecular target: human sodium channel NaV1.2 (Homo sapiens, UniProt Q99250); test: NaV1.2 inhibition, automated patch-clamp (Q-Patch HTX), slow inactivated state (state C); type: cell-based; conditions: for IC50: read-out: NaV1.2 IC50; for inhibition at 1 µM: 1 μM compound, read-out: NaV1.2 (% inh), 1 μM; for inhibition at 10 µM: read-out: NaV1.2 (% inh), 10 μM
How it was run: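 CHO K-1 cells stably expressing human NaV1.2, whole-cell automated patch clamp, holding −100 mV; slow-inactivated state (state C) read at a 5 ms step to 0 mV after 10 s at −50 mV and 15 ms at −90 mV. Percent inhibition vs vehicle; IC50 by nonlinear least-squares fit.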

[2] = molecular target: T1, recombinant human serotonin receptor 5-HT2A (Homo sapiens, UniProt P28223); test: 5-HT2A antagonist Ca2+ assay in CHO-K1 cells (method A aequorin luminescence / method B FLIPR fluorescence); type: cell-based; conditions: antagonist mode vs EC80 of reference agonist, method A or B
T1 construct: expressed in transfected cells; method B: loaded with Ca2+ dye
How it was run: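 Method A: CHO-K1 cells co-expressing human 5-HT2A and mitochondrial apoaequorin were given reference agonist at EC80 15 min after compound, with luminescence read. Method B: dye-loaded 5-HT2A CHO-K1 cells were pretreated with compound, then given serotonin at EC80, with FLIPR fluorescence read. IC50s came from nonlinear fits of percent inhibition.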

[3] = hNaV1.2 CHO cells, slow inactivated state
[4] = 10 μM compound, hNaV1.2 CHO cells, slow inactivated state

human sodium channel NaV1.2, sequence (Q99250 whole entry): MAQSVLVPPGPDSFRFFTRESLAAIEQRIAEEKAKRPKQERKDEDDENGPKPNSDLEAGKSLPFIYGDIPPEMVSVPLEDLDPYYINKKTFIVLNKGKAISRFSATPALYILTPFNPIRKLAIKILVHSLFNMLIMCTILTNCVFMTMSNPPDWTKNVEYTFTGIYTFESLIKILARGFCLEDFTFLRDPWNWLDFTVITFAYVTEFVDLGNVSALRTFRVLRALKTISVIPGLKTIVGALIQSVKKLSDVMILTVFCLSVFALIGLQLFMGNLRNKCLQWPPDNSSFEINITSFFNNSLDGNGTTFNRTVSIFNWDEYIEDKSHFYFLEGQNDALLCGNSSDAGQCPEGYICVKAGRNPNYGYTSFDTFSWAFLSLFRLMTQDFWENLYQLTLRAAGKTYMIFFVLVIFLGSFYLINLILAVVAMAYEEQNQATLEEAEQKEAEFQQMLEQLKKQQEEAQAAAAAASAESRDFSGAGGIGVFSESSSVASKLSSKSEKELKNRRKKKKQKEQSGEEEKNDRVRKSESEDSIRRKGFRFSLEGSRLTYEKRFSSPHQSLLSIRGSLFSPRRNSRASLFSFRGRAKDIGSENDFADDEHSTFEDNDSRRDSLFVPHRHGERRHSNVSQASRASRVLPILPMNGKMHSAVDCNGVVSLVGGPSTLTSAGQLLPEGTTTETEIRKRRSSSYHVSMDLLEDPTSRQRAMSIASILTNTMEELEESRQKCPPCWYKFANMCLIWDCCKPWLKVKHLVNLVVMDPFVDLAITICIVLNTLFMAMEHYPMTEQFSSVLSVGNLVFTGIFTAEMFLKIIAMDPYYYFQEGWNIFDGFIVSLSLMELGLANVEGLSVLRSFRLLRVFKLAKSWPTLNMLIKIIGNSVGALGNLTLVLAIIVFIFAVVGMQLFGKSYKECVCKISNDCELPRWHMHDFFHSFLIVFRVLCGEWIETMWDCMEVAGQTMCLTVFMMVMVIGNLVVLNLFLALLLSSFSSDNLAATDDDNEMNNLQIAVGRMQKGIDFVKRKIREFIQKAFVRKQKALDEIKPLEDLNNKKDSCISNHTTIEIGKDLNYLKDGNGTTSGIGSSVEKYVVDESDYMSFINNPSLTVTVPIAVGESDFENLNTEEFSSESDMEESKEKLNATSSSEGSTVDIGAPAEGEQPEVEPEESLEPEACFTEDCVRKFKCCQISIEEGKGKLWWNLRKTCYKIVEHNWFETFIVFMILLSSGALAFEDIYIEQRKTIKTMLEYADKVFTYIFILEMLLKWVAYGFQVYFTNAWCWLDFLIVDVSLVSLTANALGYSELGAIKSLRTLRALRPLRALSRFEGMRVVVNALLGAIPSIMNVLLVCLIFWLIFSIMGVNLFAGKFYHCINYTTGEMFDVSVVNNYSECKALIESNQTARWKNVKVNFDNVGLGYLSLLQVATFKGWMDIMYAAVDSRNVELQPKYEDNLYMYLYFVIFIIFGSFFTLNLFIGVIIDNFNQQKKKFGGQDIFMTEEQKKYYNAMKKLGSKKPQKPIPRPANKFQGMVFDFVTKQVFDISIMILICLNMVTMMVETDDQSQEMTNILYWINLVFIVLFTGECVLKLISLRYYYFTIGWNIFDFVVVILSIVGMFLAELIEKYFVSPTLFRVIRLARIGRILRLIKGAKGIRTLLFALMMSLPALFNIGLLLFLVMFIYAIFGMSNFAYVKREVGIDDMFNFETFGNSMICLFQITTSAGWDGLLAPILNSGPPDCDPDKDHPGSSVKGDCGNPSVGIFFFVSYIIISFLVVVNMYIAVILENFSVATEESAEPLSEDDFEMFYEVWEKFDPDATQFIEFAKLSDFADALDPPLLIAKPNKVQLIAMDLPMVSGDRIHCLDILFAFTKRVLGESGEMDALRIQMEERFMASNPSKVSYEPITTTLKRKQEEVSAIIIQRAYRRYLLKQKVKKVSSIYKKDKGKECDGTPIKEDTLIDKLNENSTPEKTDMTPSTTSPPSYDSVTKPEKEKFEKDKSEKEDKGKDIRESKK
T1 sequence (P28223 whole entry): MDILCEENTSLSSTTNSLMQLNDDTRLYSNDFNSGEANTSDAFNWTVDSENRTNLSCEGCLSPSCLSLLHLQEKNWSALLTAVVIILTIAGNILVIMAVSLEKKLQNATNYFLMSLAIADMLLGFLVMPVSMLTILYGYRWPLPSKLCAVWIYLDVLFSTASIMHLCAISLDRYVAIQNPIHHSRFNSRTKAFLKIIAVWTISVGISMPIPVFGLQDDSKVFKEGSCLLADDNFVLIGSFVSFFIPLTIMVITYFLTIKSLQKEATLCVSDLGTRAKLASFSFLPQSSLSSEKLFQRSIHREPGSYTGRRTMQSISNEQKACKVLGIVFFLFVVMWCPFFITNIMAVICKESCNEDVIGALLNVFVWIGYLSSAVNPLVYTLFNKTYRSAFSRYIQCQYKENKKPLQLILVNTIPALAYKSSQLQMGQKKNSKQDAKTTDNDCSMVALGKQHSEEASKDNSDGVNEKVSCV

inhibition at 1 µM [1, 3] [%]	Compound	IC50 [1, 3] [nM]	IC50 ([2]; read-out: 5HT2A IC50) [µM]	further results
–	OC(COc1ccccc1)CN1CCC2(CCc3ccccc3O2)CC1 (stereo not shown) [Example 439, 1-phenoxy-3-(spiro[chromane-2,4′-piperidin]-1′-yl)propan-2-ol]	500	0.01	–
–	OC(CO[C@@H]1CCCc2ccccc21)CN1CC[C@@H](Oc2ccc(F)cc2)C1 (stereo partly drawn) [Example 50, 1-((R)-3-(4-fluorophenoxy)pyrrolidin-1-yl)-3-(((R)-1,2,3,4-tetrahydronaphthalen-1-yl)oxy)propan-2-ol]	1290	0.06	–
32	COc1ccccc1OC1CCN(CC2CCOc3ccccc32)CC1 (stereo not shown) [Example 162, 1-(chroman-4-ylmethyl)-4-(2-methoxyphenoxy)piperidine]	–	0.09	–
10	Fc1ccc(OC2CCN(CCC3CCCOC3)CC2)cc1 (stereo not shown) [Example 169, 4-(4-fluorophenoxy)-1-(2-(tetrahydro-2H-pyran-3-yl)ethyl)piperidine]	–	0.28	–
–	COc1cccc(CCN2CCC3(CCc4ccccc4O3)CC2)c1 [Example 429, 1′-(3-methoxyphenethyl) spiro[chromane-2,4′-piperidine]]	1340	0.37	–
-3	c1cnc(OC2CCN(CC3CCc4ccccc43)CC2)nc1 (stereo not shown) [Example 125, 2-((1-((2,3-dihydro-1H-inden-1-yl)methyl)piperidin-4-yl)oxy) pyrimidine]	–	0.08	–
–	O[C@@H](COC1CCCCC1)CN1C[C@@H]2C[C@H]1CN2Cc1ccccc1 [Example 308, (R)-1-((1S,4S)-5-benzyl-2,5-diazabicyclo[2.2.1]heptan-2-yl)-3-(cyclohexyloxy)propan-2-ol]	–	4.02	inhibition at 10 µM [1, 4]: 27%
9	OC1(c2ccccc2)COC2(CCN(CC3CCc4ccccc43)CC2)C1 (stereo not shown) [Example 374, 8-((2,3-dihydro-1H-inden-1-yl)methyl)-3-phenyl-1-oxa-8-azaspiro[4.5]decan-3-ol]	–	0.25	–
29	c1ccc2c(c1)CCC1(CCN(CC3COCc4ccccc43)CC1)O2 (stereo not shown) [Example 414, 1′-(isochroman-4-ylmethyl)spiro[chromane-2,4′-piperidine]]	–	0.26	–
–	COc1ccccc1OC1CCN(CC2c3ccccc3CC2C)CC1 (stereo not shown) [Example 101, 4-(2-methoxyphenoxy)-1-((2-methyl-2,3-dihydro-1H-inden-1-yl)methyl)piperidine]	370	0.08	–
–	O[C@@H](COC1CCCCC1)CN1CCC2(CCc3ccccc3O2)CC1 [Example 438, (R)-1-(cyclohexyloxy)-3-(spiro[chromane-2,4′-piperidin]-1′-yl)propan-2-ol]	1310	0.15	–
–	c1ccc2c(c1)COC1(CCN(CC3CCc4ccccc43)CC1)C2 (stereo not shown) [Example 443, l′-((2,3-dihydro-1H-inden-1-yl)methyl)spiro[isochromane-3,4′-piperidine]]	3370	0.22	–
–	Fc1ccc(O[C@H]2CCN(CC3COCc4ccccc43)C2)cc1 (stereo partly drawn) [Example 12, (3S)-3-(4-fluorophenoxy)-1-(isochroman-4-ylmethyl)pyrrolidine]	3230	0.3	–
–	COc1ccc2c(c1)C(CN1CC3CCC1CN3c1ccccc1)CC2 (single isomer, unassigned) [Example 310]	700	0.03	–
–	c1ccc(OC2CCN(CC3CCc4ccccc43)CC2)cc1 (stereo not shown) [Example 106, 1-((2,3-dihydro-1H-inden-1-yl)methyl)-4-phenoxypiperidine]	> 10000	0.01	–
12	N#Cc1ccccc1OC1CCN(CC2CCOc3ccccc32)CC1 (stereo not shown) [Example 161, 2-((1-(chroman-4-ylmethyl)piperidin-4-yl)oxy)benzonitrile]	–	0.05	–
–	O[C@H](COC1CCCCC1)CN1CCC2(CCN(c3ccccc3)C2)C1 (stereo partly drawn) [Example 345, (2S)-1-(cyclohexyloxy)-3-(7-phenyl-2,7-diazaspiro[4.4]nonan-2-yl)propan-2-ol]	1900	0.24	–
–	O[C@@H](CCN1CCC(Oc2ccccc2)CC1)c1ccccc1 [Example 228, (S)-3-(4-phenoxypiperidin-1-yl)-1-phenylpropan-1-ol]	–	0.14	inhibition at 10 µM [1, 4]: 52%

inhibition at 1 µM [1, 3] [%]	Compound	IC50 [1, 3] [nM]	IC50 ([2]; read-out: 5HT2A IC50) [µM]	further results
–	c1ccc(N2C[C@@H]3C[C@H]2CN3CC2CCc3ccccc32)cc1 (stereo partly drawn) [Example 303, (1S,4S)-2-((2,3-dihydro-1H-inden-1-yl)methyl)-5-phenyl-2,5-diazabicyclo[2.2.1]heptane]	1820	2.6	–
–	Fc1ccc(OC2CCN(CC3Cc4cccnc4C3)CC2)cc1 (stereo not shown) [Example 155, 6-((4-(4-fluorophenoxy)piperidin-1-yl)methyl)-6,7-dihydro-5H-cyclopenta[b]pyridine dihydrochloride]	1000	0.04	–
–	COc1ccccc1OC1CCN(CC2c3ccccc3CC2(C)C)CC1 (stereo not shown) [Example 100]	2600	0.71	–
–	Cc1ccc(N2CCN(CC(O)COC3CCCCC3)CC2)cc1 (stereo not shown) [Example 76, 1-(cyclohexyloxy)-3-(4-(p-tolyl)piperazin-1-yl)propan-2-ol]	240	0.02	–
–	COc1cccc(OC2CCN(CCN3CCc4ccccc4C3=O)CC2)c1 [Example 195, 2-(2-(4-(3-methoxyphenoxy)piperidin-1-yl)ethyl)-3,4-dihydroisoquinolin-1(2H)-one]	1500	0.26	–
–	OC(COC1CCCCC1)CN1CCC2(CC1)OCc1ccccc12 (stereo not shown) [Example 393, 1′-(cyclohexyloxy)-3-(3H-spiro[isobenzofuran-1,4′-piperidin]-1′-yl)propan-2-ol]	–	–	inhibition at 10 µM ([1]; CHO): 93%; IC50 ([2]; 5HT2A IC50, μM): 1.8 µM
37	c1ccc2c(c1)CCC1(CCN(CC3Cc4cccnc4C3)CC1)O2 (stereo not shown) [Example 411, 1′-((6,7-dihydro-5H-cyclopenta[b]pyridin-6-yl)methyl)spiro[chromane-2,4′-piperidine]]	–	1.2	–
–	c1ccc(N2CCN(CC3CCc4ccccc43)CC2)cc1 (stereo not shown) [Example 55, 1-((2,3-dihydro-1H-inden-1-yl)methyl)-4-phenylpiperazine]	4120	0.01	–
–	Cc1ccc(N2CCN(C[C@H](O)COC3CCCCC3)CC2)cc1 [Example 77, (S)-1-(cyclohexyloxy)-3-(4-(p-tolyl)piperazin-1-yl)propan-2-ol]	9020	0.21	–
–	OC(COC1CCCCc2ccccc21)CN1CCC(Oc2ccccc2)CC1 (stereo not shown) [Example 240, 1-(4-phenoxypiperidin-1-yl)-3-((6,7,8,9-tetrahydro-5H-benzo[7]annulen-5-yl)oxy)propan-2-ol]	960	0.11	–
1	OC1(CN2CC[C@@H](Oc3ccc(F)cc3)C2)COCc2ccccc21 (stereo partly drawn) [Example 9, 4-(((R)-3-(4-fluorophenoxy)pyrrolidin-1-yl)methyl)isochroman-4-ol]	–	0.6	–
–	COc1ccccc1O[C@@H]1CCN(CC2Cc3ccccc3C2)[C@H](C)C1 [Example 140, (2R,4R)-1-((2,3-dihydro-1H-inden-2-yl)methyl)-4-(2-methoxyphenoxy)-2-methylpiperidine]	510	0.63	–
–	c1ccc(OC2COC3(C2)CN(CC2CCc4ccccc42)C3)cc1 (single isomer, unassigned) [Compound 362, 2-((2,3-dihydro-1H-inden-1-yl)methyl)-7-phenoxy-5-oxa-2-azaspiro[3.4]octane]	6370	0.5	–
–	Fc1ccc(COC2CCN(CC3CCOc4ccccc43)CC2)cc1 (stereo not shown) [Example 249, 1-(chroman-4-ylmethyl)-4-((4-fluorobenzyl)oxy)piperidine]	630	0.21	–
2	Fc1ccc(OC2CCCCN(CC3CCc4ccccc43)C2)cc1 (stereo not shown) [Example 275, 1-((2,3-dihydro-1H-inden-1-yl)methyl)-3-(4-fluorophenoxy)azepane]	–	0.4	–
–	O=C1CC2(CCN(CC3CCc4ccccc43)C2)Oc2ccccc21 (stereo not shown) [Example 388, 1′-((2,3-dihydro-1H-inden-1-yl)methyl)spiro[chromane-2,3′-pyrrolidin]-4-one]	1750	0.22	–
44	Fc1ccc(OC2CCCN(CC3CCc4ccccc43)CC2)cc1 (stereo not shown) [Example 271, 1-((2,3-dihydro-1H-inden-1-yl)methyl)-4-(4-fluorophenoxy)azepane]	–	0.23	–

Compound	inhibition at 1 µM [1, 3] [%]	IC50 [1, 3] [nM]	IC50 ([2]; read-out: 5HT2A IC50) [µM]	further results
O[C@H](CO[C@H]1CCCc2ccccc21)CN1CCN(Cc2ccccc2)CC1 [Example 87, (S)-1-(4-benzylpiperazin-1-yl)-3-(((S)-1,2,3,4-tetrahydronaphthalen-1-yl)oxy)propan-2-ol]	15	–	3.63	–
O[C@H](COC1CCCCC1)CN1CC2(CC(c3ccccc3)CO2)C1 (stereo partly drawn) [Example 360, (2S)-1-(cyclohexyloxy)-3-(7-phenyl-5-oxa-2-azaspiro[3.4]octan-2-yl)propan-2-ol]	4	–	0.13	–
O=C1c2ccccc2CCN1CCN1C[C@H]2CC[C@@H](C1)N2c1ccccc1 [Example 297, 2-(2-((1R,5S)-8-phenyl-3,8-diazabicyclo[3.2.1]octan-3-yl)ethyl)-3,4-dihydroisoquinolin-1(2H)-one]	-4	–	> 16.7	–
